Results published in ChEMBL document CHEMBL1201862, “PubChem BioAssay data set” (2004).
Active and inactive are the calls of the source.

Legend:
[1] = A cytotoxicity screen of small molecule inhibitors of the PhoP region in Salmonella typhi identified in the primary screen. [Related pubchem assays: 1850, 1864, 1985 ]; type: functional
[2] = cytotoxicity in HEK-293T cells, dose response, cytotoxicity control for BCR NF-kB inhibitor project, luminescence, B-cell screen hits (AID 489021); type: functional, cell-based;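 further: HEK-293T cells carrying an NF-kB luciferase reporter; cells exposed to compound for about 14 hours before viability readout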
[3] = target: T1, Neuropeptides B/W receptor type 1 (Homo sapiens, UniProt P48145); assay: Fluorescence-based dose response cell-based high throughput screening assay to identify antagonists of the G-protein coupled receptor 7 (GPR7). [Related pubchem assays: 1952 (Screening assay (GPR7 antagonists).), 1880 (Summary AID.)]; type: functional
T1 sequence (P48145 whole entry): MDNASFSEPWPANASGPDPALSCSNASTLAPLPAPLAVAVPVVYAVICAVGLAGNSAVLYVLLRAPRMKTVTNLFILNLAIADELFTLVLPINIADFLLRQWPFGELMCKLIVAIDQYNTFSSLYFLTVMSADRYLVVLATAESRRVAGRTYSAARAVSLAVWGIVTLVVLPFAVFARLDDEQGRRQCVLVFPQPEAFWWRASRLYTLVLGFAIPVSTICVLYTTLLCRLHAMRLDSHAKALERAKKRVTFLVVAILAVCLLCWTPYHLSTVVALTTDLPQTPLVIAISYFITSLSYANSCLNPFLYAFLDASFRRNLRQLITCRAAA

[4] = target: T2, Melanin-concentrating hormone receptor 1 (Homo sapiens, UniProt Q99705); assay: Fluorescence-based counterscreen for antagonists of the G-protein coupled receptor 7 (GPR7): cell-based high throughput dose response assay to identify antagonists of the melanin-concentrating hormone receptor 1 (MCHR1).; type: functional
T2 sequence (Q99705 whole entry): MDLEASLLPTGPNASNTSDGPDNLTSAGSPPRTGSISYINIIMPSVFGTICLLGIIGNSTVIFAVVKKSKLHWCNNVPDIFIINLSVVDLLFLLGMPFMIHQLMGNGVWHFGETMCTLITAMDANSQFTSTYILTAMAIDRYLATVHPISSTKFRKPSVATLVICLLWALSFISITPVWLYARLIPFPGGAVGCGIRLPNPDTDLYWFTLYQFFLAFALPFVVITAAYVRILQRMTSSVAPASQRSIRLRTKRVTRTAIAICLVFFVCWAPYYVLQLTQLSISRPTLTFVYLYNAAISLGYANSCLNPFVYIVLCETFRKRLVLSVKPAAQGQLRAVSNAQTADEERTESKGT

[5] = test system: Streptococcus sp. 'group A'; assay: growth inhibition of control SK(-) GAS strain, dose response, counter-screen for streptokinase expression inhibitor project, luminescence, kanamycin, BacTiterGlo, confirmation (AID 1900); type: functional, organism-based
BJ [6] = assay: cytotoxicity toward BJ-TERT fibroblasts, dose response, cell-based, RAS-independent, luminescence (AID 1933); type: functional; settings: Homo sapiens
[7] = target: T3, Voltage-gated N-type calcium channel alpha-1B subunit/Amyloid beta A4 precursor protein-binding family A member 1 (Homo sapiens, UniProt Q00975+Q02410); type: protein assay
T3 sequence (Q00975 whole entry): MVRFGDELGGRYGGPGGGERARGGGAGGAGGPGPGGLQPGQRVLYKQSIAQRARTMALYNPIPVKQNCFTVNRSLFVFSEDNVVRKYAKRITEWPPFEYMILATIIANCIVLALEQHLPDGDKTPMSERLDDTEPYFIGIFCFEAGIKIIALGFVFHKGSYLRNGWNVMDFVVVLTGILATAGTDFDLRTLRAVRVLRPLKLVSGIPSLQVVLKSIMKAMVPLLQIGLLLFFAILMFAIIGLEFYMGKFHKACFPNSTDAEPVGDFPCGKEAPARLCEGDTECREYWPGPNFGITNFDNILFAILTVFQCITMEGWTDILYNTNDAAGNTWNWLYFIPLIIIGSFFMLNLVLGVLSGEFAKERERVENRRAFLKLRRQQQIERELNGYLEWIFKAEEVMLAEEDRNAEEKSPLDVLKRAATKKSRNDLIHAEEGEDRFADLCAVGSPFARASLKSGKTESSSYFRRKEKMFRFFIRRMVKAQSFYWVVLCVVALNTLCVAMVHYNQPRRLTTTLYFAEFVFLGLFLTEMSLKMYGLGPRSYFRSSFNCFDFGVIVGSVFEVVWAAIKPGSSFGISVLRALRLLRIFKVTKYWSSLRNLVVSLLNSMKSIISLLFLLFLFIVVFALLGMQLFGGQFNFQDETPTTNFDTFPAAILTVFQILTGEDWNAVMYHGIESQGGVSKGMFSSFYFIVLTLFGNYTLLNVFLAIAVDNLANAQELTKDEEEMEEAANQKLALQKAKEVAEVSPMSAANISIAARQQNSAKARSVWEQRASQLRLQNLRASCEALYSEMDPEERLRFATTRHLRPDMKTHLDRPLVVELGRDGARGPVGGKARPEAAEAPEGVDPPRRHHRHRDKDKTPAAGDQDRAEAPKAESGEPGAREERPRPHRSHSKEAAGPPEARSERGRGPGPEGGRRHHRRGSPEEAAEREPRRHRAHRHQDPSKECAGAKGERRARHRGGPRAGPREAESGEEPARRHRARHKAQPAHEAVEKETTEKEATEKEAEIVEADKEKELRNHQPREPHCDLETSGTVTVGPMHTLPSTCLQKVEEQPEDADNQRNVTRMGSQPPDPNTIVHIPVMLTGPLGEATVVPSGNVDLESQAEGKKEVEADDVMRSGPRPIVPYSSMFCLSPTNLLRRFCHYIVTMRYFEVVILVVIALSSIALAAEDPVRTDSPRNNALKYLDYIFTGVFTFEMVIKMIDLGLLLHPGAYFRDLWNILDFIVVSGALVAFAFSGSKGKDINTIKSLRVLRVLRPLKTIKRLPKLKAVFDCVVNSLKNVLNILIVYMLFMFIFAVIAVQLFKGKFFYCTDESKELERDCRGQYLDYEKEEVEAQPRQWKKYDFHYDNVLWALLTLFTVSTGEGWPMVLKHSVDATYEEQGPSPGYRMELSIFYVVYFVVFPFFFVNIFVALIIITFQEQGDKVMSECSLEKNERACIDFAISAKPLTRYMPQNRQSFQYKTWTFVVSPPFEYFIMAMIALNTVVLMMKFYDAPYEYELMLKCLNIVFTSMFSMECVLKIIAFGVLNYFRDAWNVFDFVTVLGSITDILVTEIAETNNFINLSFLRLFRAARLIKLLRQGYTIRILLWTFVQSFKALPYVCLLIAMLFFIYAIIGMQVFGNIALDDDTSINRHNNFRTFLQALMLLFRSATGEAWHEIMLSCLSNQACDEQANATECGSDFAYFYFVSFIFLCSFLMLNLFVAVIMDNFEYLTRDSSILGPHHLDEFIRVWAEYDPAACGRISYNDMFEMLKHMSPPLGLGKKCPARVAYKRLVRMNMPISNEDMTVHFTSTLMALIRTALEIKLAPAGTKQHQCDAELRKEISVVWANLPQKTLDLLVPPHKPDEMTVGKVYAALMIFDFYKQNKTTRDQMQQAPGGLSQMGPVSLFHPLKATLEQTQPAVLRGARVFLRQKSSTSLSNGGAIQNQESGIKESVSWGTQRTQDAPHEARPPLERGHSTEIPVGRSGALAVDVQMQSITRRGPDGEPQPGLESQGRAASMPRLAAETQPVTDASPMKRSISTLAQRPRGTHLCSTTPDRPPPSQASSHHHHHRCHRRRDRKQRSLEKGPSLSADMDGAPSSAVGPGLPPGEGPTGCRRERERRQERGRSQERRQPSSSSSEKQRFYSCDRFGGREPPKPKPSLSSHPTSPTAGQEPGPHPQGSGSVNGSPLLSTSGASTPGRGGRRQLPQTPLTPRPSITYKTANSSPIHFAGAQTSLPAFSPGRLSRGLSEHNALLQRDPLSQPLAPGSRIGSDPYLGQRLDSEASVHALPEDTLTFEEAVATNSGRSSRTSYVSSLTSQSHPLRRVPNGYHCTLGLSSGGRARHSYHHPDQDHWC
T3 sequence (Q02410 whole entry): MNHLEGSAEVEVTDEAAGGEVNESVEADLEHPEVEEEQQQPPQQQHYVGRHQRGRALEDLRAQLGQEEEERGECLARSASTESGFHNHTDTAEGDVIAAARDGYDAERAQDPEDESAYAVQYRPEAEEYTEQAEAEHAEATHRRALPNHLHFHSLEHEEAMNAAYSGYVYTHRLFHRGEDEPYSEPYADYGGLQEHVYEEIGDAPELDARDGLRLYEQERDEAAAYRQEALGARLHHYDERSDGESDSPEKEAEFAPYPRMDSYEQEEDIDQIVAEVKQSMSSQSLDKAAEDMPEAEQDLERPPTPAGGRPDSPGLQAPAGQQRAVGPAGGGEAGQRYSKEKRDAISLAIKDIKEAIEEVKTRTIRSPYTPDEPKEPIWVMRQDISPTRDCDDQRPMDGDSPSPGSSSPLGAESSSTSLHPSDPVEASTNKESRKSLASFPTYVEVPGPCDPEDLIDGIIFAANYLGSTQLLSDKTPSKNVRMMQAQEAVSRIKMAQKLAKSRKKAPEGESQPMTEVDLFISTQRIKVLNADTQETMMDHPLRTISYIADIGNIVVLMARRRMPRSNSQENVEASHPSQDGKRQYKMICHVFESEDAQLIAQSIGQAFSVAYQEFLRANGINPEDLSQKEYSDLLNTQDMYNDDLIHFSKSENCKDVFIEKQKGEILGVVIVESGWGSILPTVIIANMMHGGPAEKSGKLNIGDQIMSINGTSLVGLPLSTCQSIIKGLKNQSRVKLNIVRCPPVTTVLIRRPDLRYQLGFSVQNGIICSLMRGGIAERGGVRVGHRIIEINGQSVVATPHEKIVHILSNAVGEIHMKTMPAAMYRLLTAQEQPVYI

Streptokinase A = target: T4, Streptokinase A (Streptococcus pyogenes serotype M1, UniProt P10520); assay: S. pyogenes streptokinase expression inhibitors, potency, dose response, plasminogen activation absorbance, OD405 (AID 1914); type: functional, Streptococcus pyogenes M1 GAS;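 further: secreted streptokinase activity via plasminogen activation per viability signal from cell pellet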
T4 sequence (P10520 whole entry): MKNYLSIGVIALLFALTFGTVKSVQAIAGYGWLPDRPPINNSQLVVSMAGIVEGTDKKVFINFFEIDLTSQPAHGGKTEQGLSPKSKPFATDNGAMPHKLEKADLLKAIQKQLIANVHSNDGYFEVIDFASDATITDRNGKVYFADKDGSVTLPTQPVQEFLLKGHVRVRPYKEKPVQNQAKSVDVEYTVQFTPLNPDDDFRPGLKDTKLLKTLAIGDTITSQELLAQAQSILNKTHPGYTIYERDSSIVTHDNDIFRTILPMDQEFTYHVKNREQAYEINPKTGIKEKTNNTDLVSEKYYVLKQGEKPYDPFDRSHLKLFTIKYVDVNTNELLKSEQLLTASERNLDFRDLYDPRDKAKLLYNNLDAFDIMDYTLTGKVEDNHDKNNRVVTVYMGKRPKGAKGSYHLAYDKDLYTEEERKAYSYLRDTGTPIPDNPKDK

BJ [8] = assay: cells; type: functional, cell-based; settings: Homo sapiens
[9] = target: T3, Voltage-gated N-type calcium channel alpha-1B subunit/Amyloid beta A4 precursor protein-binding family A member 1; type: protein assay; remark: listed apart in the source
BJ [10] = assay: cytotoxicity toward BJ-TERT-LT-ST fibroblasts, dose response, cell-based, RAS-independent, luminescence (AID 1935); type: functional; settings: Homo sapiens;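 further: BJ fibroblasts immortalized with TERT plus LT and ST oncogenes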
[11] = cytotoxicity toward DRD oncogenic fibroblasts, dose response, cell-based, non-viral oncogenic, luminescence (AID 1934); type: functional; settings: Homo sapiens
Streptococcus = assay: Group A Streptococcus viability loss, dose response, counter-screen for streptokinase expression inhibitor project, luminescence, BacTiterGlo (AID 1915); type: functional, organism-based;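 further: potency for reduction of bacterial viability or growth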
[12] = Luminescence Cell-Based Dose Retest to Confirm Inhibitors of Cancer Stem Cells. [Related pubchem assays (depositor defined):AID2717, AID2721]; type: functional; settings: Homo sapiens
Galanin receptor type 3 = target: T5, Galanin receptor type 3 (Homo sapiens, UniProt O60755); assay: Fluorescence-based cell-based primary high throughput dose response assay to identify antagonists of the Galanin Receptor 3 (GalR3).; type: functional
T5 sequence (O60755 whole entry): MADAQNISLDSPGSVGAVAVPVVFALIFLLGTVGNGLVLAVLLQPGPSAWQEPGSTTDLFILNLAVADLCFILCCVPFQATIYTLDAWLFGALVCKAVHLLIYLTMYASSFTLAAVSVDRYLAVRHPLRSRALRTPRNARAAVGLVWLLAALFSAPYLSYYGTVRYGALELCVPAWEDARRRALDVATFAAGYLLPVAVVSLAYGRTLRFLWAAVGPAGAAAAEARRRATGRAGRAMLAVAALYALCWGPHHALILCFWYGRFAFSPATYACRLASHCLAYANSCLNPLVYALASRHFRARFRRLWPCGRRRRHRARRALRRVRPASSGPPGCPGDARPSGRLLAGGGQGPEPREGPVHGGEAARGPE

cells = type: functional, cell-based; settings: HEK-CNG
Trypsin = Trypsin (Sus scrofa, UniProt P00761); assay: porcine trypsin inhibitors, dose response, selectivity assay for Rce1 protease inhibitor project, biochemical, quenched peptide fluorescence, cherry-pick (AID 488789)
Chain of Trypsin (P00761 whole entry): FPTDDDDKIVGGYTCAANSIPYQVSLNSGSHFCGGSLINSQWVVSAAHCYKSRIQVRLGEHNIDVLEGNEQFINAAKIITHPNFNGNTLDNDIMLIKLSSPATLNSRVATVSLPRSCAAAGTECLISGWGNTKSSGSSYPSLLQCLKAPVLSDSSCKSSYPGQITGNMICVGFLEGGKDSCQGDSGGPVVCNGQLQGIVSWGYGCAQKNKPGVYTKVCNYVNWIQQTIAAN

CAAX prenyl protease 2 = target: T6, CAAX prenyl protease 2 (Homo sapiens, UniProt Q9Y256); assay: human Rce1 protease inhibitors, dose response, biochemical, yeast membranes, quenched-peptide fluorescence, cherry-pick (AID 588849)
T6 sequence (Q9Y256 whole entry): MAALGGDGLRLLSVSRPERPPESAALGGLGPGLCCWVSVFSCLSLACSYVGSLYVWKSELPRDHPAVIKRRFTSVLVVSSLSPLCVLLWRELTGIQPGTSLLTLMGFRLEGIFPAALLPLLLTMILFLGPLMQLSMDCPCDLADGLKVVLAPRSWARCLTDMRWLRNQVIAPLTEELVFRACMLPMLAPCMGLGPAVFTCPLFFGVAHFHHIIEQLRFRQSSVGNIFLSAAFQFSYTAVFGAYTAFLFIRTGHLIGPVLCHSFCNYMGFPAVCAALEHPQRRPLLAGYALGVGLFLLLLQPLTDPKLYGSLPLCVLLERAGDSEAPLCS

[13] = target: T2, Melanin-concentrating hormone receptor 1; assay: Late-stage fluorescence-based counterscreen for antagonists of the G-protein coupled receptor 7 (GPR7): cell-based dose response assay to identify antagonists of the melanin-concentrating hormone receptor 1 (MCHR1). [Related pubchem assays (depositor defined):AID1861, AID1880, AID1952, AID2148, AID2251, AID2257, AID485339]; type: functional
[14] = A Cell Based Secondary Assay To Explore Cytotoxicity of Compounds that Sensitize Mycobacterium Tuberculosis to Beta-Lactam Antibiotics.; type: functional
[15] = target: T7, Calpain-2 catalytic subunit (Sus scrofa, UniProt P43367); assay: pig calpain II inhibitor potency, dose response, biochemical, fluorogenic peptide substrate (AID 1420); type: functional
T7 sequence (P43367 whole entry): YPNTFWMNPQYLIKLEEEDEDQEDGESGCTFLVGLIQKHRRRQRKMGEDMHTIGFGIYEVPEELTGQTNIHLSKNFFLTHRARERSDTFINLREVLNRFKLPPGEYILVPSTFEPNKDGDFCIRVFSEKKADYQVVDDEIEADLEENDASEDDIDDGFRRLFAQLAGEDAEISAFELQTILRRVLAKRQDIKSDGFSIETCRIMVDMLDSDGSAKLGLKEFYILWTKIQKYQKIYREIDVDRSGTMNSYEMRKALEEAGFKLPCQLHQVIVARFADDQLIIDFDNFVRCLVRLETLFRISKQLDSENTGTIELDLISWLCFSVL

[16] = target: T8, Mannose-6-phosphate isomerase (Homo sapiens, UniProt P34949); assay: human PMI inhibitors, high substrate, primary screen, biochemical, fluorescence intensity, high mannose 6-phosphate (AID 1220)
T8 sequence (P34949 whole entry): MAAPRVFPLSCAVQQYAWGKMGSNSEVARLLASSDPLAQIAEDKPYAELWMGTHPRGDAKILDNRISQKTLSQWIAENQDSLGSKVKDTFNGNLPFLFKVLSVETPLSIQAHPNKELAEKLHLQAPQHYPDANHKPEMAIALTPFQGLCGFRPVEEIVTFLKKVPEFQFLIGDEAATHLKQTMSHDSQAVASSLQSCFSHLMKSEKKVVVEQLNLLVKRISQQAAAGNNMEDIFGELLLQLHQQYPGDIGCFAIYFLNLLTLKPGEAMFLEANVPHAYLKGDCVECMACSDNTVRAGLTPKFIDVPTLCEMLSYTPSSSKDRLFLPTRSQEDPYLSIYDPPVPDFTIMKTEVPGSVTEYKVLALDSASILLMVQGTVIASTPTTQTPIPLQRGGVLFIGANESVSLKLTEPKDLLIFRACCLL

[17] = target: FAD-linked sulfhydryl oxidase ALR (Homo sapiens, UniProt P55789); assay: inhibitors of human ALR sulfhydryl oxidase, dose response, biochemical, H2O2 detection, luminescence, cherry-pick (AID 493248)
Chain of FAD-linked sulfhydryl oxidase ALR (P55789 whole entry): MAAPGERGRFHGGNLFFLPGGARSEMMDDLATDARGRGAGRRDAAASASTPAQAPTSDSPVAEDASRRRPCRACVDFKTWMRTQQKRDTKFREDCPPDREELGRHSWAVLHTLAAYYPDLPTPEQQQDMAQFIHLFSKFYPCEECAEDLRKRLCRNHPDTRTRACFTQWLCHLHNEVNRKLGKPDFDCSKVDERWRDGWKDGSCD

CHO-K1 = assay: (§1) Counterscreen for antagonists of the orexin 1 receptor (OX1R; HCRTR1): Homogeneous time resolved fluorescence (HTRF)-based cell-based dose response assay to identify antagonists of the parental CHO-K1 cell line. [Related pubchem assays (depositor defined):AID434989, AID435008, AID463079, AID485270, AID492963, AID492964, AID492965, AID493232, AID504699, AID504701]; type: functional; settings: Cricetulus griseus
[18] = as §1, with “Fluorescence-based” for “Homogeneous time resolved fluorescence (HTRF)-based”, “cell-based high throughput” for “cell-based”, “CHO” for “CHO-K1”; type: functional
[19] = target: T9, Orexin/Hypocretin receptor type 1 (Homo sapiens, UniProt O43613); assay: Homogeneous Time Resolved Fluorescence (HTRF)-based cell-based high throughput dose response assay for antagonists of the orexin 1 receptor (OX1R; HCRTR1). [Related pubchem assays (depositor defined):AID434989, AID435008, AID463079, AID485270, AID492963, AID492964, AID492965, AID493232, AID504717, AID504718]; type: functional
T9 sequence (O43613 whole entry): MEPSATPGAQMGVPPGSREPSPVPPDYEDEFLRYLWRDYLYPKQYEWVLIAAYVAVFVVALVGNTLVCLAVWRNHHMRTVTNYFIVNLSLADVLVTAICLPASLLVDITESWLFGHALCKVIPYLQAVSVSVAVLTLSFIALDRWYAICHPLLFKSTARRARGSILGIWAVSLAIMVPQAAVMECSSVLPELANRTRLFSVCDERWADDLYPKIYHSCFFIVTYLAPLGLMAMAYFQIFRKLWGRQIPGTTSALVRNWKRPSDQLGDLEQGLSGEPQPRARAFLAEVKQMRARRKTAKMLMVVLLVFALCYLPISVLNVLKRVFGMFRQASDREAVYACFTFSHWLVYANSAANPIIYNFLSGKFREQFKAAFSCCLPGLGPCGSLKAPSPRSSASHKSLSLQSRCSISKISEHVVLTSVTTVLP

[20] = target: T9, Orexin/Hypocretin receptor type 1; assay: Fluorescence-based cell-based high throughput dose response assay for antagonists of the orexin 1 receptor (OX1R; HCRTR1). [Related pubchem assays (depositor defined):AID434989, AID435008, AID463079, AID485270, AID492963, AID492964, AID492965, AID493232, AID504717, AID504718]; type: functional

CCN=C(S)Nc1cccc(S(=O)(=O)Nc2ccccc2OC)c1
EC50 [1]: > 50 µM (active)

Cc1ccc(S(=O)(=O)Nc2ccc3c(c2)n(C)c(=O)n3C)cc1
IC50 [2]: > 80 µM (inactive)

Cc1ccccc1NC(=O)C1CCCN(c2ncnc3onc(-c4ccc(F)cc4)c23)C1 (centres undefined)
IC50 [3]: > 43.8 µM (not active) | IC50 [4]: > 43.8 µM (not active)

Cc1ccc(CN2C(=O)c3ccccc3Sc3ccc(C(=O)NCCCN4CCOCC4)cc32)cc1
IC50 [3]: 6.89 µM (active) | IC50 [4]: 10.4 µM (not active)

Cc1ccccc1-c1cc(C(=O)Nc2sc(C(=O)OC(C)C)c(C)c2C#N)c2ccccc2n1
EC50 [5]: 14.6 µM (active) | EC50 (BJ [6]): > 150 µM (not active) | IC50 [7]: 17.9 µM (active) | EC50 (Streptokinase A): > 150 µM (not active) | EC50 (BJ [8]): > 150 µM (inconclusive) | IC50 [9]: > 50 µM (inactive) | EC50 (BJ [10]): > 75 µM (inconclusive) | EC50 [11]: 42.3 µM (active) | EC50 (Streptococcus): 26 µM (active) | AC50 [12]: 0.246 µM (active) | IC50 [2]: 45.6 µM (inactive) | IC50 (Galanin receptor type 3): 0.967 µM (active) | EC50 (cells): > 29.9 µM (inactive)

CC(=O)c1c(N2CCN(c3cccc(Cl)c3)CC2)nc(=S)n(-c2ccccc2)c1C
EC50 [1]: > 50 µM (active)

CCOc1cc(-c2nc3c(C)cccn3c2NCC2CCCO2)ccc1O.CNC (centres undefined)
AC50 (Trypsin): 12.7 µM (active) | AC50 (CAAX prenyl protease 2): 15.1 µM (active)

Cc1ccc(C(=O)CSc2nnc(COc3ccccc3)o2)cc1
IC50 [2]: > 80 µM (inactive)

COc1ccc(N(C(=O)c2cccnc2)S(=O)(=O)c2cccc([N+](=O)[O-])c2)cc1
EC50 [1]: > 50 µM (active)

COc1ccc(Oc2c(Cl)cnn(-c3ccc(C(C)(C)C)cc3)c2=O)cc1
IC50 [13]: 2.7 µM (active)

COc1ccc(Oc2c(-c3cccs3)cnn(-c3ccc(C)cc3)c2=O)cc1
IC50 [13]: > 20 µM (inactive)

O=C(CCNc1ccccc1)c1cccc([N+](=O)[O-])c1
CC50 [14]: 25.6 µM (active) | IC50 [15]: 14.1 µM (not active) | IC50 [16]: 39.5 µM (active) | AC50 [17]: 5.58 µM (active)

CN(Cc1c(C(=O)N/N=C/c2cccc(O)c2)nnn1-c1nonc1N)c1ccccc1
IC50 (CHO-K1): > 66.2 µM (inactive) | IC50 [18]: 24.2 µM (inactive) | IC50 [19]: 1.04 µM (active) | IC50 [20]: 5.74 µM (active)
